Measurements: patent US12544396B2, “Compositions and methods for treating metabolic disease” (VOGENX, priority 2019, dated 2026)

What was measured:
[1] = orally administered to rat, in comparison with no compound; cited from earlier work
[2] = Oral glucose tolerance test (OGTT) in normal rats: plasma glucose and plasma insulin; format: in vivo; conditions: for Plasma glucose 0 hr / Plasma insulin 0 hr / Plasma glucose 0.25 hr / Plasma insulin 0.25 hr / Plasma glucose 0.5 hr / Plasma insulin 0.5 hr / Plasma glucose 1 hr / Plasma insulin 1 hr / Plasma glucose 2 hr / Plasma insulin 2 hr / Plasma glucose 4 hr / Plasma insulin 4 hr / Plasma glucose ΔAUC 0-1 hr / Plasma insulin ΔAUC 0-1 hr: oral, KGT-1681 3 mg/kg, KGA-3235 0.03 mg/kg, Combo 3 and 0.03 mg/kg; for Effect on increase in plasma glucose after glucose loading: FIG. 1A; for Two-way ANOVA main effect in AUC0-1hr for plasma glucose: FIG. 1B; for Effect on plasma insulin: FIG. 2A
Method: Example 1. Combination treatment with mizagliflozin and remogliflozin. Combination treatment with KGT-1681 and KGA-3235 in normal rats. KGT-1681 was suspended in 0.1% methylcellulose (MC) and KGA-3235 was dissolved in distilled water (DW). Rats (9 weeks of age) were divided into the following four groups and treated as indicated: vehicle, 0.1% MC+DW; KGT, KGT-1681 (3 mg/kg, 5 mL/kg) plus DW; KGA, 0.1% MC plus KGA-3235 (0.03 mg/kg, 5 mL/kg); and Combo, KGT-1681 plus KGA-3235 (3 and 0.03 mg/kg, respectively). After 16 h fasting, the drug and glucose solution (400 g/L, 5 ml/kg) were orally administered to rats. Blood was obtained in heparinized and aprotinin-treated tubes from a tail vein at each sampling point. Plasma glucose concentration was determined using a Glucose CII-test Wako (Wako Pure Chemicals, Osaka, Japan). Plasma insulin was determined using an enzyme-linked immunosorbent assay kit (Morinaga Institute of Biological Science, Inc., Yokohama, Japan). The area under the curve (AUC)0-1 hr for plasma glucose and insulin were calculated from the plasma glucose and insulin concentrations during the OGTT (Table 1).

[3] = pre-treatment before mixed meal, cited from earlier work

Row | Structure (SMILES) | Plasma glucose 0 hr [2] [mg/dL] | Plasma insulin 0 hr [2] [pg/mL] | Plasma glucose 0.25 hr [2] [mg/dL] | Plasma insulin 0.25 hr [2] [pg/mL] | Plasma glucose 0.5 hr [2] [mg/dL] | Plasma insulin 0.5 hr [2] [pg/mL] | Plasma glucose 1 hr [2] [mg/dL] | Plasma insulin 1 hr [2] [pg/mL] | Plasma glucose 2 hr [2] [mg/dL] | Plasma insulin 2 hr [2] [pg/mL] | Plasma glucose 4 hr [2] [mg/dL] | Plasma insulin 4 hr [2] [pg/mL] | Effect on increase in plasma glucose after glucose loading [2] | Two-way ANOVA main effect in AUC0-1hr for plasma glucose [2] | Effect on plasma insulin [2] | Plasma glucose ΔAUC 0-1 hr [2] [mg·h/dL] | Plasma insulin ΔAUC 0-1 hr [2] [pg·h/mL] | further results
1 | CCOC(=O)OC[C@H]1O[C@@H](Oc2ccccc2Cc2ccc(OC)cc2)[C@H](O)[C@@H](O)[C@@H]1O [2-(4-methoxybenzyl)phenyl 6-O-ethoxycarbonyl-β-D-glucopyranoside] |  |  |  |  |  |  |  |  |  |  |  |  |  |  |  |  |  | Increase of lipid accumulative amount in rat liver [1]: inhibited significantly
2 | Cc1cc(OCCCNCC(C)(C)C(N)=O)ccc1Cc1c(O[C@@H]2O[C@H](CO)[C@@H](O)[C@H](O)[C@H]2O)n[nH]c1C(C)C [KGA-3235, 3-(3-{4-[3-(β-D-glucopyranosyloxy)-5-isopropyl-1H-pyrazol-4-ylmethyl-]-3-methylphenoxy}propylamino)-2,2-dimethylpropionamide] | 92 ± 4 | 278 ± 25 | 147 ± 7 | 1197 ± 146 | 164 ± 5 | 1014 ± 131 | 169 ± 5 | 933 ± 111 | 136 ± 2 | 551 ± 98 | 80 ± 3 | 286 ± 39 | inhibited the increase in plasm glucose | significant main effect | decreased | 152 ± 4 | 948 ± 88 | 
3 | CCOC(=O)OC[C@H]1O[C@@H](Oc2nn(C(C)C)c(C)c2Cc2ccc(OC(C)C)cc2)[C@H](O)[C@@H](O)[C@@H]1O [KGT-1681, 5-methyl-4-[4-(1-methylethoxy)benzyl]-1-(1-methylethyl)-1H-pyrazol-3-yl 6-O-(ethoxycarbonyl)-β-D glucopyranoside] | 101 ± 3 | 380 ± 29 | 146 ± 5 | 1219 ± 183 | 163 ± 7 | 978 ± 182 | 168 ± 6 | 1187 ± 152 | 113 ± 5 | 425 ± 40 | 85 ± 2 | 338 ± 92 | inhibited the increase in plasm glucose | significant main effect | decreased | 152 ± 5 | 1020 ± 148 | 
4 | OC[C@H]1O[C@@H](c2ccc(Cl)c(Cc3ccc(O[C@H]4CCOC4)cc3)c2)[C@H](O)[C@@H](O)[C@@H]1O [empagliflozin] |  |  |  |  |  |  |  |  |  |  |  |  |  |  |  |  |  | Severity of hypoglycemic events ([3]; versus placebo, p=0.037): significantly reduced; Nadir glucose values [3]: significantly increased; Events requiring rescue glucose administration ([3]; placebo 7 of 12 patients): two
